From patent US8486981B2, “Selective ligands for the dopamine 3 (D3) receptor and methods of using the same” (The Regents of the University of Michigan, priority 2011, dated 2013)

Experiments:
D3 dopamine receptors = target: T1, D3 dopamine receptors (Rattus norvegicus, UniProt P19020); test: [3H]R(+)-7-OH-DPAT binding assay, rat ventral striatum membranes; conditions: rat brain; for Ki: mean ± SEM of 3-6 determinations; for Selectivity D1-like/D3 / Selectivity D2-like/D3: ratio of Ki values
T1 construct: Rat ventral striatum (nucleus accumbens and olfactory tubercles) was prepared in assay buffer; tissue Pel-Freez, Rogers, Ark; host or cells: rat ventral striatum (nucleus accumbens and olfactory tubercles) membranes
Method: All the synthesized compounds were determined for the binding affinities at the D3, D1-like and D2-like receptors in membranes prepared from the brains of adult, male Sprague-Dawley rats (Pel-Freez, Rogers, Ark.). All compounds were dissolved in 100% EtOH at a concentration of 5 mM.
[^3H]R(+)-7-OH-DPAT Binding Assays.
[^3H]R-(+)-7-OH-DPAT binding assays for the D3 dopamine receptors were performed as previously described in detail.^(44),(45) Rat ventral striatum (nucleus accumbens and olfactory tubercles) was prepared in assay buffer (50 mM Tris, 1 mM EDTA; pH 7.4 at 23° C.) to yield a final concentration of 10 mg original wet weight (o.w.w.)/ml. […] Nonspecific binding was defined by 1 μM spiperone. Assay tubes were incubated at 23° C. for 90 min. The reaction was terminated by rapid vacuum filtration.

D3 receptor = target: T2, D3 receptor (Rattus norvegicus, UniProt P19020); test: Induction of yawning behavior in rats; format: in vivo; conditions: for Emax: rat, read-out: Increase in yawning relative to maximum effect of pramipexole at 0.1 mg/kg, doses between 0.0032 and 3.2 mg/kg; for Emax / Lowest dose active (significant increase in yawning): rats; for Lowest dose active (significant increase in yawning): s.c., yawns/60 min; for In vivo functional activity at the D3 receptor: yawning assays in rats
T2 construct: evaluated for the effect in the induction of yawning and hypothermia in rats; tissue Harlan; Indianapolis, Ind; host or cells: living male Sprague-Dawley rats
Method: (§1) Male Sprague-Dawley rats (Harlan; Indianapolis, Ind.) weighing 250-300 g were housed three to a cage for yawning studies, and one to a cage for hypothermia studies, and maintained on a 12-h dark/light cycle with lights on at 7:00 AM in a temperature (21-23° C.) and humidity controlled environment with free access to standard Purina rodent chow and water. […] All drugs were administered subcutaneously (s.c.) in a volume of 1 ml/kg.
Yawning behavior was defined as a prolonged (˜1 sec.), wide opening of the mouth followed by a rapid closure. On the day of testing, rats were transferred from their home cage to a test chamber (48 cm×23 cm×20 cm clear rodent cage with standard cob bedding), and allowed to habituate to the chamber for a period of 30 min prior to a sterile water injection which was administered 30 min prior to the injection of the compound of interest. Yawns were scored for a period of 60 min thereafter. Each compound was assessed in groups of 6 rats, with each rat receiving a single dose of one compound. Food and water were unavailable during test sessions, and all experiments were conducted between the hours of 12:00 PM and 6:00 PM with at least 72 hrs between test sessions to allow for drug washout.
(§2) Dose-response curves for the induction of yawning and hypothermia were determined with 6 rats per group, and results expressed as the mean number of yawns, or change in body temperature 60 min post agonist injection compared to the body temperature 1 min prior to the agonist injection±standard error of the mean (SEM).

D2 receptor [1] = target: T3, D2 receptor (Rattus norvegicus, UniProt P61169); test: Hypothermia assay (core body temperature) in rats; format: in vivo; conditions: 10.0 mg/kg s.c.
T3 construct: evaluated for the effect in the induction of yawning and hypothermia in rats; tissue Harlan; Indianapolis, Ind; host or cells: living male Sprague-Dawley rats
Method: as §1
Rats were anesthetized with ketamine/xylazine (100/10 mg/kg; i.p.) and their abdominal area was shaved and cleaned with alternating betadine and alcohol swabs prior to surgical implantation of radio-telemetric probes (E-4000 E-Mitter, Mini-Mitter, Bend, Oreg., USA). […]
On the day of testing, rats were weighed and returned to their home cages, which were placed onto a receiving pad (ER-4000 Receiver, Mini-mitter, Bend, Oreg.) to allow for the collection of core body temperature. Temperature measurements were taken every min with at least 30 min of baseline temperature data recorded prior to the administration of antagonist or vehicle. Agonist or vehicle injections were administered 30 min thereafter, and core body temperature was recorded for a period of at least the next 60 min. […]

D3 and D2 receptors = test: Effect on pramipexole-induced yawning in rats; format: in vivo, rat; conditions: 30-min pretreatment; 38/52 […], SB-277011A 32 mg/kg, L-741,626 1.0 mg/kg
Method: as §1
(§3) Observation of yawning behavior began immediately after each injection, and the total number of yawns was recorded for 60 min thereafter.
as §2

D2 receptor [2] = target: T3, D2 receptor; test: Effect on pramipexole-induced hypothermia in rats; format: in vivo; conditions: pretreatment 10.0 mg/kg; pramipexole 1.0 mg/kg
Method: as §1, §3, §2

Solubility in water = format: physicochemical

T3 sequence (P61169 whole entry): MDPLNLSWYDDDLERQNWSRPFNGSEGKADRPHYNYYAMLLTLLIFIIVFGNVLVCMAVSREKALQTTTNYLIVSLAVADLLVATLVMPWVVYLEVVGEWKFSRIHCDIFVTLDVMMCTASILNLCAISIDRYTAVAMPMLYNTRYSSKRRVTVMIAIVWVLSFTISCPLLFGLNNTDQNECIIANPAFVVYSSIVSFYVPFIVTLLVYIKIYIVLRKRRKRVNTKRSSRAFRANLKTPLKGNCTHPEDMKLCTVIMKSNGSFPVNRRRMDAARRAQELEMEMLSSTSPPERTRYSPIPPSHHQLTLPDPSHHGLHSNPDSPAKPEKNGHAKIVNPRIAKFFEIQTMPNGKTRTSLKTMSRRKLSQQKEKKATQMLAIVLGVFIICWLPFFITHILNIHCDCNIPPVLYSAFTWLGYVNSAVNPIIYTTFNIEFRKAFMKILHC
T1 sequence (P19020 whole entry): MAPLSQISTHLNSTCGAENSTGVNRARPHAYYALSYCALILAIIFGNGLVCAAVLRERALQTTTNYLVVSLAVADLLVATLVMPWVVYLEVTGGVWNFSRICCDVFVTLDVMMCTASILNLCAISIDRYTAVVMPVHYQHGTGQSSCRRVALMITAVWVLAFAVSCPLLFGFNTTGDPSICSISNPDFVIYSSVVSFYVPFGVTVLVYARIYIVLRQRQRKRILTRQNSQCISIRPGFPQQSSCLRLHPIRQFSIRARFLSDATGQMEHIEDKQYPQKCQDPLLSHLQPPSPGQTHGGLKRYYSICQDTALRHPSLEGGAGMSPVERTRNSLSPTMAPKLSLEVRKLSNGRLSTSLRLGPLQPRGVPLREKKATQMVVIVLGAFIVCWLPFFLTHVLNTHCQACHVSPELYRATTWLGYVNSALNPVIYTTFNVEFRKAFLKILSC
T2 sequence (P19020 whole entry): as above

Structure (SMILES)	Ki (D3 dopamine receptors) [nM]	Selectivity D1-like/D3 (D3 dopamine receptors)	Selectivity D2-like/D3 (D3 dopamine receptors)	further results
CCCN(CCC1CCC(NC(=O)c2cccc(-c3noc(C)n3)c2)CC1)C1CCc2nc(N)sc2C1 (stereo in doubt) [Compound 38, Trans-N-(4-2-(((s)-2-amino-4,5,6,7-tetrahydrobenzo[d]thiazol-6-yl)(propyl)amino)ethylcyclohexyl)-3-(5-methyl-1,2,4-oxadiazol-3-yl)benzamide]	0.73	–	494	Emax (D3 receptor): 25%; Lowest dose active (significant increase in yawning) (D3 receptor): 3.2 µg/kg; In vivo functional activity at the D3 receptor (D3 receptor): partial agonists at the D3 receptor; Induction of hypothermia (D2 receptor [1]): significant effect in induction of hypothermia; Effect on yawning induced by 0.1 mg/kg pramipexole (D3 and D2 receptors): effectively inhibited; Effect on hypothermic effects of pramipexole (D2 receptor [2]): slight, but significant reductions; solubility (Solubility in water): > 100 mg/mL
CCCN(CCC1CCC(NS(=O)(=O)c2cccc(F)c2)CC1)C1CCc2nc(N)sc2C1 (stereo in doubt) [Compound 43, Trans-N-(4-2-(((s)-2-amino-4,5,6,7-tetrahydrobenzo[d]thiazol-6-yl)(propyl)amino)ethylcyclohexyl)-3-fluorobenzenesulfonamide]	0.72	–	–	–
CCCN(CCC1CCC(NS(=O)(=O)c2ccc(Cl)cc2)CC1)C1CCc2nc(N)sc2C1 (stereo in doubt) [Compound 46, Trans-N-(4-2-(((s)-2-amino-4,5,6,7-tetrahydrobenzo[d]thiazol-6-yl)(propyl)amino)ethylcyclohexyl)-4-chlorobenzenesulfonamide]	0.95 ± 0.01	8,754	75	–
CCCN(CCC1CCC(NS(=O)(=O)c2cccnc2Cl)CC1)C1CCc2nc(N)sc2C1 (stereo in doubt) [Compound 52, Trans-N-(4-2-(((s)-2-amino-4,5,6,7-tetrahydrobenzo[d]thiazol-6-yl)(propyl)amino)ethylcyclohexyl)-2-chloropyridine-3-sulfonamide]	0.38	–	451	Emax (D3 receptor): 25%; Lowest dose active (significant increase in yawning) (D3 receptor): 3.2 µg/kg; In vivo functional activity at the D3 receptor (D3 receptor): partial agonists at the D3 receptor; Induction of hypothermia (D2 receptor [1]): significant effect in induction of hypothermia; Effect on yawning induced by 0.1 mg/kg pramipexole (D3 and D2 receptors): effectively inhibited; Effect on hypothermic effects of pramipexole (D2 receptor [2]): slight, but significant reductions
CCCN(CCC1CCC(NS(=O)(=O)c2cnccc2Cl)CC1)C1CCc2nc(N)sc2C1 (stereo in doubt) [Compound 53, Trans-N-(4-2-(((s)-2-amino-4,5,6,7-tetrahydrobenzo[d]thiazol-6-yl)(propyl)amino)ethylcyclohexyl)-4-chloropyridine-3-sulfonamide]	0.93	–	–	–
OC1(c2ccc(Cl)cc2)CCN(Cc2c[nH]c3ccccc23)CC1 [L-741,626, reference compound]	–	–	–	Effect on yawning at […] pramipexole (D3 and D2 receptors): reversed the inhibition of yawning; Effect on yawning induced by 0.1 mg/kg pramipexole (D3 and D2 receptors): failed to alter the induction of yawning
N#Cc1ccc2c(c1)CCN(CCC1CCC(NC(=O)c3ccnc4ccccc34)CC1)C2 (stereo not drawn) [SB-277011A, reference compound]	–	–	–	Effect on yawning at […] pramipexole (D3 and D2 receptors): inhibited the induction of yawning; Effect on yawning induced by 0.1 mg/kg pramipexole (D3 and D2 receptors): inhibited the induction of yawning

More lines, in order of falling Ki (D3 dopamine receptors), values ahead:

Ki (D3 dopamine receptors) [nM]	Selectivity D1-like/D3 (D3 dopamine receptors)	Selectivity D2-like/D3 (D3 dopamine receptors)	Structure (SMILES)	further results
3.5 ± 0.57	3,245	–	CCCN(CCC1CCC(NC(=O)c2ccc(-c3noc(C4CC4)n3)cc2)CC1)C1CCc2nc(N)sc2C1 (single isomer, unassigned) [Compound 36]	–
2.1 ± 0.15	8,381	–	CCCN(CCC1CCC(NC(=O)c2ccc(-c3noc(CC)n3)cc2)CC1)C1CCc2nc(N)sc2C1 (stereo in doubt) [Compound 34, Trans-N-(4-2-(((s)-2-amino-4,5,6,7-tetrahydrobenzo[d]thiazol-6-yl)(propyl)amino)ethylcyclohexyl)-4-(5-ethyl-1,2,4-oxadiazol-3-yl)benzamide]	–
2 ± 0.19	5,366	–	CCCN(CCC1CCC(NC(=O)c2ccc(-c3noc(C(C)C)n3)cc2)CC1)C1CCc2nc(N)sc2C1 (single isomer, unassigned) [Compound 35]	–
1.5	3,448	339	CCCN(CCC1CCC(NC(=O)c2cccc(-c3noc(CC)n3)c2)CC1)C1CCc2nc(N)sc2C1 (single isomer, unassigned) [Compound 37]	–
1.3	27,041	345	CCCN(CCC1CCC(NC(=O)c2ccc(-c3noc(C)n3)cc2)CC1)C1CCc2nc(N)sc2C1 (stereo in doubt) [Compound 33, Trans-N-(4-2-(((s)-2-amino-4,5,6,7-tetrahydrobenzo[d]thiazol-6-yl)(propyl)amino)ethylcyclohexyl)-4-(5-methyl-1,2,4-oxadiazol-3-yl)benzamide]	–
1.1 ± 0.1	–	–	CCCN(CCC1CCC(NS(=O)(=O)c2cccc(Cl)c2)CC1)C1CCc2nc(N)sc2C1 (stereo in doubt) [Compound 45, Trans-N-(4-2-(((s)-2-amino-4,5,6,7-tetrahydrobenzo[d]thiazol-6-yl)(propyl)amino)ethylcyclohexyl)-3-chlorobenzenesulfonamide]	–
0.78	27,487	49	CCCN(CCC1CCC(NS(=O)(=O)c2ccc(OC)cc2)CC1)C1CCc2nc(N)sc2C1 (stereo in doubt) [Compound 44, Trans-N-(4-2-(((s)-2-amino-4,5,6,7-tetrahydrobenzo[d]thiazol-6-yl)(propyl)amino)ethylcyclohexyl)-4-methoxybenzenesulfonamide]	–
0.68 ± 0.06	–	–	CCCN(CCC1CCC(NS(=O)(=O)c2ccccc2Cl)CC1)C1CCc2nc(N)sc2C1 (stereo in doubt) [Compound 47, Trans-N-(4-2-(((s)-2-amino-4,5,6,7-tetrahydrobenzo[d]thiazol-6-yl)(propyl)amino)ethylcyclohexyl)-2-chlorobenzenesulfonamide]	–
0.63 ± 0.04	12,933	–	CCCN(CCC1CCC(NS(=O)(=O)c2ccc(Cl)nc2)CC1)C1CCc2nc(N)sc2C1 (stereo in doubt) [Compound 51, Trans-N-(4-2-(((s)-2-amino-4,5,6,7-tetrahydrobenzo[d]thiazol-6-yl)(propyl)amino)ethylcyclohexyl)-6-chloropyridine-3-sulfonamide]	–
